# From patent US20260033761A1, “CHARACTERISATION OF NEUROLOGICAL DYSFUNCTION” (Hoffmann-La Roche Inc., priority 2022, published 2026)
# “Also recorded” adds a separate entry of the source. Like-named read-outs stand apart in the source and are kept apart here.
# Experiments:
# GABA-A receptors = settings: Visser et al., 2003; cited from earlier work
# GABA-A α5 receptors = target: T1, GABA-A α5 receptors (Rattus norvegicus, UniProt P18508+P19969); settings: Wistar rats prenatally exposed to valproic acid; cited from earlier work
# T1 construct: host or cells: Wistar rats in vivo (valproic acid model)
# T1 sequence (P19969 32-464 limits assumed): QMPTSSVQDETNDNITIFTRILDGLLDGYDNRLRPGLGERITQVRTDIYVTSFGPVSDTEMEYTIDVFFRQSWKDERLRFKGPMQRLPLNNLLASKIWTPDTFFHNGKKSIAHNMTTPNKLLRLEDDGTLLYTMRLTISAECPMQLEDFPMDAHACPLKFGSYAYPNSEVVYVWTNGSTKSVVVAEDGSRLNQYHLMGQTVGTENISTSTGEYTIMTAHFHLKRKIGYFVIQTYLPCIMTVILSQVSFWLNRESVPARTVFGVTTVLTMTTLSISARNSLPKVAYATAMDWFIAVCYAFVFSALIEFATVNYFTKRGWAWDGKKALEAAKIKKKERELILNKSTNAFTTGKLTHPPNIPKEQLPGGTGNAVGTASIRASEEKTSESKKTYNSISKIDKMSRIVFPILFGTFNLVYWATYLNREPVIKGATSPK
# T1 sequence (P63079 26-473 partner): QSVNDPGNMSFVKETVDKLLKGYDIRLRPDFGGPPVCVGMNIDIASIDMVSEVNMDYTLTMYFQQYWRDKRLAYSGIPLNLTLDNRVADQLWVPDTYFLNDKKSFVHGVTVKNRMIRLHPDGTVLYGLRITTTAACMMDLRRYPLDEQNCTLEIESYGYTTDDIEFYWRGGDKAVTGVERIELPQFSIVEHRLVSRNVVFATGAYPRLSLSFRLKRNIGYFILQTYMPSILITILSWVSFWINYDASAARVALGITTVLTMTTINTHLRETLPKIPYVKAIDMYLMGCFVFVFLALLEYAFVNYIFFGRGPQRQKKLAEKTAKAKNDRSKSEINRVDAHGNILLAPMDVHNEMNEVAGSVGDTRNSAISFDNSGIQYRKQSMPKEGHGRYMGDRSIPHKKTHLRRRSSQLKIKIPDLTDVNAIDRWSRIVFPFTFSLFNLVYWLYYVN
# T1 sequence (P18508 39-466): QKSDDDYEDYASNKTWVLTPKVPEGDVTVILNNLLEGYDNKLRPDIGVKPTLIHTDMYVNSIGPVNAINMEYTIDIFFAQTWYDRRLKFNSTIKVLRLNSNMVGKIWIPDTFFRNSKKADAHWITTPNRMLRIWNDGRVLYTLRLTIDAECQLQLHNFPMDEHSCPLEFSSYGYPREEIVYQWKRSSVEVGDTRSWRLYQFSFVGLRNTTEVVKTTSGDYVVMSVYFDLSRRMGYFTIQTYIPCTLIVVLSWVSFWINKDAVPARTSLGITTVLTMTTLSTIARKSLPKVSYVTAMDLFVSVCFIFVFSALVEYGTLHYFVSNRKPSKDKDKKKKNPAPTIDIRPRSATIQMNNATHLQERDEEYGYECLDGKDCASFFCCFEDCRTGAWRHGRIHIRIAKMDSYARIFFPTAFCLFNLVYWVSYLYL
# GABA-A α5 [1] = target: T2, GABA-A α5 (Homo sapiens, UniProt P18507+P31644); experiment: Resting state EEG, Phase 1 SAD/MAD study BP40091 (alogabat vs placebo); type: in vivo, human (adult healthy volunteers); set-up: endogenous in cells; host or cells: brain of adult healthy volunteers, in vivo (resting-state EEG)
# T2 sequence (P31644 32-462): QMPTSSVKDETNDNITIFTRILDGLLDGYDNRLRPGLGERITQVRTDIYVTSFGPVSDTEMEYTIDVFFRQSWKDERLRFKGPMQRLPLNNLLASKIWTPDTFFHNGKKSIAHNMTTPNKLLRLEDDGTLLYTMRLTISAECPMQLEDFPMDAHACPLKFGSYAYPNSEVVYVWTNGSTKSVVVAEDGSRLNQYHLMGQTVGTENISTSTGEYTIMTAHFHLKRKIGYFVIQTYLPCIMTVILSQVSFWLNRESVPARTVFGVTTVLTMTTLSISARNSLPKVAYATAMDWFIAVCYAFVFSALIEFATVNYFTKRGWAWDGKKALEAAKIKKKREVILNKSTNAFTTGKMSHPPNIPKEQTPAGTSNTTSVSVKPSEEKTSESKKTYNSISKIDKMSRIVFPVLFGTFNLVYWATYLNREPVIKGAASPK
# T2 sequence (P28472 26-473 partner): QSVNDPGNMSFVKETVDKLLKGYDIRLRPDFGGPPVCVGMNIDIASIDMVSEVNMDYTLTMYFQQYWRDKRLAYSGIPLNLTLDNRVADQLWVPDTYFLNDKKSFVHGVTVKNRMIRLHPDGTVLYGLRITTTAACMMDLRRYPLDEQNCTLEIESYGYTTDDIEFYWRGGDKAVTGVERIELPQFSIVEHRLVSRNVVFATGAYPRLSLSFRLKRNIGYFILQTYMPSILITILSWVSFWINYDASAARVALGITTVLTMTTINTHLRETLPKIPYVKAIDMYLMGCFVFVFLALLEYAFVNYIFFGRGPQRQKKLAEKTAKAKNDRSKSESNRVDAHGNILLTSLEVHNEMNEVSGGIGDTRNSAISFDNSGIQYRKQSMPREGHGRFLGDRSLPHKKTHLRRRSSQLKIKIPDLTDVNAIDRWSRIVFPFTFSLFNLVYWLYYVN
# T2 sequence (P18507 40-467 limits assumed): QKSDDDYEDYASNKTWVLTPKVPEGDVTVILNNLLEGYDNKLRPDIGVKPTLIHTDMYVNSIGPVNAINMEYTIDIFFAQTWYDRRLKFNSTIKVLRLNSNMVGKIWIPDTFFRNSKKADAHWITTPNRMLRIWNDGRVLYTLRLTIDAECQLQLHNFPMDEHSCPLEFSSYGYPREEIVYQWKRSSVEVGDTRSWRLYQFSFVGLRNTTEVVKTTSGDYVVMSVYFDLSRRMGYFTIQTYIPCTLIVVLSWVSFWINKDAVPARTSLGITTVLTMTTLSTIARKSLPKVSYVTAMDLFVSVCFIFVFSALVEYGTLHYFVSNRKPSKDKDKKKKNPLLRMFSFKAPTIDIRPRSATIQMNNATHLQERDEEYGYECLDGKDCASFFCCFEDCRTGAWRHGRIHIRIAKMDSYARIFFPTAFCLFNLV
# Excerpt: Extracting beta band oscillations. […] Here this approach is applied to isolate beta-band oscillations from EEG signals (FIGS. 4,5). This approach entails the estimation of the “background activity” in the frequency range of interest, which is non-oscillatory and/or composed of many oscillatory signals at different neighboring frequencies and therefore appears non-oscillatory. In a first implementation referred to as “locally referenced power”, the “background activity” for a given frequency range of interest (here beta frequency range defined as 16-32 Hz) is estimated by interpolation from power at lower and higher neighboring frequencies, referred to herein as “reference supports” (in this example, reference support points of 12 and 40 Hz are used). Note that in cases where a peak in the alpha band is expected (e.g. a peak around 10 Hz), reference support points that are closer to the beta frequency range on the lower end of the scale may be used, such as e.g. any point between 12 and 16 Hz). The estimated “background activity” is then “removed” (i.e. excluded, such as subtracted) from the power in the frequency range of interest or a power spectral density value at a specific frequency within this frequency range (e.g. the peak frequency, or a predetermined frequency, such as e.g. a frequency identified as the group level peak in a population, e.g. 23 Hz in the present case). The resulting estimate should thereby provide a more specific measure of the oscillatory physiological process under investigation (here GABAA-related beta-band oscillations).
# More specifically, the “background power spectral density” at a given frequency may be derived by linear interpolation of logarithmically transformed power and frequencies (see FIG. 4B). The power signal in spectral analysis is typically log transformed by default. […] The “background power” is then estimated as the integral of this “background power spectral density” over the beta frequency range (here defined as 16-32 Hz). In other words, the “background signal” is the area under a straight line extending between the value of the spectrum at each of the support points (“background signal line”), between 16 and 32 Hz. The “locally referenced beta power” is then defined as the logarithm of the ratio between the beta power defined as the integral over the beta frequency range and the estimate of the “background power” (which is equivalent to the logarithm of the beta power defined as the integral over the beta frequency range, minus the logarithm of the estimate of the “background power”, or the area under the power curve in log scale, in the beta frequency range, minus the area under the background signal line in log scale, in the beta frequency range). Note that this metric will be negative when there is a deficit in the signal in this range compared to background.
# In a third implementation, an approach using a global fit of the power spectrum composed of a superposition of oscillatory signals and a 1/f^α component was used to estimate the background signal. The 1/f^α component of the fit (estimated as described in Donoghue et al., 2020, see FIG. 4C—note that only step (a) of the method described in Donoghue et al. is used herein, where an aperiodic component is estimated, see FIG. 2a of Donoghue et al.) was used as the estimate of the background power spectral density. Analogously to the above, in a first embodiment of this third implementation, the extracted “1 over f referenced beta power” was used to estimate the background signal, and in a second embodiment the extracted “1 over f referenced beta peak power” was used to estimate the background signal. […]
# GABA-A α5 [2] = target: T2, GABA-A α5; set-up: host or cells: brain of healthy volunteers (and individuals with Down syndrome), in vivo EEG; settings: cited from earlier work
# [3] = selective doses 25-100 mg, parallel group, no pre-treatment baseline
smiles,measurement,setting,value
CCc1c(C(=O)OC)ncc2[nH]c3cc(OC)c(OC)cc3c12 [DMCM],"EEG beta-band power, non-selective GABA-A NAMs",GABA-A receptors,decrease beta-band power
C#Cc1ccc2c(c1)C(c1ccccc1F)=N[C@H](C)c1c(C(=O)NC)ncn1-2 [MP-III-022],"Impairments in social, repetitive and restrictive behavioural domains",GABA-A α5 receptors,prevented impairments in many parameters
CN1Cc2c(C(=O)OC(C)(C)C)ncn2-c2ccsc2C1=O [Ro 19-4603],"EEG beta-band power, non-selective GABA-A NAMs",GABA-A receptors,decrease beta-band power
Cc1ccc(-c2noc(C)c2COc2ccc(C(=O)NC3CCOCC3)nn2)cn1 [alogabat],Dose range that exhibits the full PD response (within GABA-A a5 receptor selective dose range),GABA-A α5 [1]; EEG beta-band power change from baseline across dose levels,25 to 100 mg
same,"Effect size (ES) placebo vs treated group, locally referenced beta power","GABA-A α5 [1]; both variants (FIG. 4B interpolation, FIG. 4C 1/f fit), selective doses 25-100 mg, parallel group, no pre-treatment baseline, p<0.007",~0.7
same,Frequency specificity of the pharmacodynamic EEG effect,"GABA-A α5 [1]; change in power spectrum, 25-100 mg vs placebo, relative to pre-treatment baseline",specific to the beta-band
same,Change from baseline in EEG beta-band power (12-30 Hz),"GABA-A α5 [1]; relative to pre-dose baseline, compared to placebo, about 180 min after dosing",increases EEG beta-band power; also recorded: strong and consistent increase in beta-band power
same,"Effect size (ES) placebo vs treated group, relative beta power",GABA-A α5 [1]; [3],0.62
same,Separation of placebo and treated group by absolute beta power,GABA-A α5 [1]; [3],not able to discriminate between the alogabat and the placebo group; also recorded: does not allow separating groups
Cc1onc(-c2ccc(F)cc2)c1COc1ccc(C(=O)N2CCS(=O)(=O)CC2)cn1 [basmisanil],EEG beta-band power,"GABA-A α5 [2]; healthy volunteers and individuals with down-syndrome, Goeldner et al., 2022, Hipp et al., 2021",decrease in beta-band power
same,EEG beta-band power,"GABA-A α5 [2]; healthy volunteers, Hipp et al., 2021, FIG. 6",decrease EEG beta-band power
